# Test results: paper PMC6269693, “Synthesis and Biological Evaluation of RGD-Conjugated MEK1/2 Kinase Inhibitors for Integrin-Targeted Cancer Therapy” (Molecules, 2013)
# Read-outs that look alike come from different tables or passages of the source.
# What was measured:
# melanoma A375 cells [1] = assay: cells; details: Homo sapiens, A-375, 72 h
# Protocol: (§2) A375, U87, A549 cell line, which were obtained from the National Platform of Experimental Cell Resources for Sci-Tech (Beijing, China), were cultured in Dulbecco’s modified Eagle’s medium (DMEM; Hyclone, Logan, UT, USA), supplemented with 10% heat-inactivated FBS (Hyclone), 100 U/mL penicillin, and 100 μg/mL streptomycin (Wako Pure Chemical Industries, Ltd., Osaka, Japan).
# (§3) The cytotoxicity of the RGD-MKE1 conjugates on A375 melanoma cells, ERK signal pathway hyper-activated cell line, was studied in vitro by using an SRB assay. A375 cells (4.5 × 10^3) or U87 cells (5.0 × 10^3) were plated in each well of a 96-well tissue culture plate. Medium supplemented with 10% FBS was added, and cells were allowed to adhere for 24h. […] Then the medium was removed from the 96-well plate, and 10% ice-cold trichloroacetic acid (TCA, 200 μL) was added. The plate was kept at 4 for one hour after which was washed five times with deionized water, then stained with Sulforhodamine B (SRB, 100 μL, Sigma, St. Louis, MO, USA) before air drying. After washing with 1% acetic acid, the bound dye was solubilized with Tris base A (Sigma) and 100 μL of each sample were transferred into a 96-well plate, and then absorbance was read in a 96-well plate reader at 540 nm.Inhibitory ratio (%) = [(ODcontrol − ODtreated)/(ODcontrol)] × 100%.
# inactive MEK1 kinase = inactive MEK1 kinase (Homo sapiens, UniProt Q02750); assay: HTRF phosphor-MEK1 assay (BRAF-MEK1 assay); format: biochemical; details: for BRAF-MEK1 assay (%) 0.01μM / BRAF-MEK1 assay (%) 0.1 μM / BRAF-MEK1 assay (%) 1 μM: inhibition of phosphorylation of inactive MEK1, mean of three ± SD
# inactive MEK1 kinase, sequence (Q02750 whole entry): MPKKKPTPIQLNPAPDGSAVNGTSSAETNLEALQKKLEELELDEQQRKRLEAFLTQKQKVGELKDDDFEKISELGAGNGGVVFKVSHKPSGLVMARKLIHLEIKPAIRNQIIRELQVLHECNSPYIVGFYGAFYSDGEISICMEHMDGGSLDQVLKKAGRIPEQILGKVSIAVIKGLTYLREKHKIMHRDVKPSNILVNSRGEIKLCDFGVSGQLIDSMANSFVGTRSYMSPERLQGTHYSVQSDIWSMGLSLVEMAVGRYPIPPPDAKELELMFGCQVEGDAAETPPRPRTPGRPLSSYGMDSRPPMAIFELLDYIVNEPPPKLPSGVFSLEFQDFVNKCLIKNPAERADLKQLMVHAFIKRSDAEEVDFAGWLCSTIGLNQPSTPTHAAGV
# Protocol: (§1) Phosphorylated MEK1 was determined quantitatively by formation of a complex with specific Eu-labeled anti-phospho p44/42 MAPK (Thr202/Tyr204) antibody and anti-GST-XL665.After 3 h, time-resolved fluorescence was read using a FlexStation 3 plate reader (Molecular Devices, Sunnyvale, CA, USA). […] The curve-fitting software GraphPad Prism 4.0 was used to generate the curves and determine the IC50 values. […] The calculation method of HTRF ratio was the same with that in HTRF phosphor-MEK1 assay.
# active MEK1 kinase = target: T1, active MEK1 kinase (Homo sapiens, UniProt Q02750); assay: HTRF phosphor-ERK2 assay (MEK1-ERK2 assay); format: biochemical; details: inhibition of active MEK1 phosphorylating inactive ERK2, mean of three ± SD
# T1 construct: purchased Carna Biosciences
# T1 sequence (Q02750 whole entry): as above
# Protocol: as §1
# melanoma A375 cells [2] = details: for IC50: 72 h
# Protocol: as §2, §3
# [3] = test system: p-ERK1/2 in melanoma A375 cells; assay: Western blotting of p-ERK1/2 in A375 cell lysates; format: cell-based; details: 10 μM, 2 h
# Protocol: To evaluate the expression levels of ERK singal pathway after treated with conjugates, A375 cells were treated with compounds for 2 h respectively. Confluent cells were washed with ice-cold phosphate-buffered saline (PBS), and treated with lysis buffer (Beyotime Institute of Biotechnology, Suzhou, China) on ice for 1 h. Then the lysates were collected by scraping from the plates and then centrifuged at 13,000 rpm at 4 °C for 15 min. The protein concentration was quantitated using a Pierce BCA Protein Assay Kit (Thermo Scientific, Rockford, IL, USA) ona FlexStation 3 Benchtop Multi-Mode Microplate Reader at 562 nm (Molecular Devices). An equal amount of proteins (10 μg per lane) for each sample were analyzed by SDS-PAGE on a 10% gel. After electro-blotting to PVDF membrane (Millipore, Billerica, MA, USA) at 400 mA for 1 h, membranes were blocked with 5% nonfat dry milk for 1 h at room temperature. Membrane were washed with 0.1% PBST three times and then incubated with primary antibodies overnight at 4 °C. Antibodies against pERK and ERK (Cell Signaling Technology, Inc., Danvers, MA, USA) were utilized as the primary antibodies. […] Finally, protein products were analyzedby Image Lab^TM software(ChemiDoc^TM XRS System, BIO-RAD, Hercules, CA, USA) with. […]
# U87 glioblastoma cells = assay: In vitro anti-proliferation assay by the SRB method, U87; format: cell-based, human
# Protocol: as §2, §3
Molecule,BRAF-MEK1 assay (%) 0.01μM (inactive MEK1 kinase) [%],BRAF-MEK1 assay (%) 0.1 μM (inactive MEK1 kinase) [%],BRAF-MEK1 assay (%) 1 μM (inactive MEK1 kinase) [%],MEK1-ERK2 assay (%) 1 μM (active MEK1 kinase) [%],MEK1-ERK2 assay (%) 10 μM (active MEK1 kinase) [%],also measured
"NCCOCCONC(=O)c1ccc(F)c(F)c1Nc1ccc(I)cc1F [Compound 7e, N-(2-(2-aminoethoxy)ethoxy)-3,4-difluoro-2-((2-fluoro-4-iodophenyl)amino)benzamide]",–,–,–,–,–,melting point: 197.5 to 198.5 °C
"O=C(O)CCC(=O)NCCCONC(=O)c1ccc(F)c(F)c1Nc1ccc(I)cc1F [Compound 8b, 4-((3-((3,4-Difluoro-2-((2-fluoro-4-iodophenyl)amino)benzamido)oxy)propyl)amino)-4-oxobutanoic acid]",12.5 ± 3.2,39.6 ± 9.3,57.5 ± 1.7,29.1 ± 12.0,83.4 ± 1.2,IC50 (melanoma A375 cells [1]; read-out: A375 cell IC50): 14200 nM
"O=C(O)CCC(=O)NCCCCONC(=O)c1ccc(F)c(F)c1Nc1ccc(I)cc1F [Compound 8c, 4-((4-((3,4-Difluoro-2-((2-fluoro-4-iodophenyl)amino)benzamido)oxy)butyl)amino)-4-oxobutanoic acid]",–,–,–,–,–,melting point: 120.9 to 121.9 °C
N=C(N)NCCC[C@@H]1NC(=O)[C@H](CCCCNC(=O)CCC(=O)NCCONC(=O)c2ccc(F)c(F)c2Nc2ccc(I)cc2F)NC(=O)[C@@H](Cc2ccc(O)cc2)NC(=O)[C@H](CC(=O)O)NC(=O)CNC1=O [Compound 9a],0.3 ± 0.0,30.0 ± 4.7,74.2 ± 7.2,66.5 ± 7.7,88.4 ± 1.4,IC50 (melanoma A375 cells [2]): 4.4 µM
N=C(N)NCCC[C@@H]1NC(=O)[C@H](CCCCNC(=O)CCC(=O)NCCCONC(=O)c2ccc(F)c(F)c2Nc2ccc(I)cc2F)NC(=O)[C@@H](Cc2ccc(O)cc2)NC(=O)[C@H](CC(=O)O)NC(=O)CNC1=O [Compound 9b],6.7 ± 8.5,58.5 ± 8.5,77.6 ± 7.5,69.9 ± 3.2,93.5 ± 2.2,"inhibition of the phosphorylation of ERK1/2 protein [3]: up to 90%; IC50 (inactive MEK1 kinase): 47.9 nM; U87 cell-growth inhibition (U87 glioblastoma cells; 10 µM, SRB method): 21.3%; IC50 (melanoma A375 cells [2]): 2.1 µM"
"O=C(O)CCC(=O)OC[C@H](O)CONC(=O)c1ccc(F)c(F)c1Nc1ccc(I)cc1F [Compound 11, (S)-4-(3-((3,4-difluoro-2-((2-fluoro-4-iodophenyl)amino)benzamido)oxy)-2-hydroxypropoxy)-4-oxobutanoic Acid]",–,–,–,–,–,IC50 (melanoma A375 cells [1]; read-out: A375 proliferation assay IC50): 230 nM; fold loss of antitumor efficacy compared to 13 (melanoma A375 cells [2]; A375 IC50 vs 13): ~10 fold
"O=C(NOC[C@H](O)CO)c1ccc(F)c(F)c1Nc1ccc(I)cc1F [PD0325901, reference compound]",–,–,–,–,–,"IC50 (melanoma A375 cells [1]; read-out: A375 cell IC50): 0.45 nM; inhibition at 1 µM (U87 glioblastoma cells; Homo sapiens, U-87 MG, high concentrations (>1 µM), concentration-independent, 72 h, read-out: inhibitory activity in U87 cells): ~50%"
"c(RGDyK) [cRGD peptides, reference compound]",–,–,–,–,–,inhibition of the phosphorylation of ERK1/2 protein [3]: no inhibitory activity
